pIC50: −log10 of the molar value.
Experiments:
ovoperoxidase = ovoperoxidase (Strongylocentrotus purpuratus, UniProt O44391); experiment: CN--resistant NAD(P)H-O2 oxidoreductase (oxidase) activity of ovoperoxidase, thiol cofactor; format: biochemical; details: for cofactor for the CN--resistant oxidase reaction: in place of ovothiol
Description: NAD(P)H--02 oxidoreductase activity was measured by following the oxidation of reduced pyridine nucleotides spectrophotometrically at 360 nm in a Gilford 420 spectrophotometer. The off-peak wavelength of 360 nm for reduced pyridine nucleotides allowed the use of higher concentrations in a 1.0 cm pathlength cuvette. Assays were conducted in a 1 ml volume containing 50 mM NaCl, 20mM Hepes, 20 mM Tris, at pH 8.0 and 25° C., to which was added for routine assays 0.4 mM NADH, 0.5 mM MnCl2, 1 mM NaCN, 134 nM ovoperoxidase, and the appropriate amount of ovothiol preparation. One unit of activity is defined as the amount of ovothiol needed to stimulate consumption of 1.0 nanomoles NADH/min. […] Assays were initiated with NADH unless otherwise specified.

[1] = Trapping of tyrosyl radicals: photochemical dityrosine formation
From the text: The known photochemical crosslinking of tyrosine (Amado, R., et al., Methods Enzymol. 107:377, 1984; Malencik, D. A., and S. R. Anderson, Biochem. 26:695, 1987; Joschek, H.-I., and S. I. Miller, J. Am. Chem. Soc. 88:3273, 1986) may be used as an assay for tyrosyl radical scavenging ability. This reaction proceeds by photochemical excitation of tyrosine, followed by an ejection of an electron to yield a tyrosyl radical. The ejected electron is apparently scavenged by oxygen, as evidenced by the augmentation of the tyrosine crosslinking rate on addition of SOD (scavenging 02^.-, thus slowing the back reaction of tyrosyl radical and 02^.- to yield tyrosine and 02). The tyrosyl radicals couple with one another to yield dityrosine, which is detected by its characteristic fluorescence. […] This is strong evidence that ovothiol can act as an efficient tyrosyl radical scavenger. This assay is mechanistically relatively simple technique for assaying antioxidants.

[2] = system: xanthine/xanthine oxidase system; details: cited from earlier work
[3] = Non-enzymic direct reaction of thiol with H2O2; format: physicochemical; details: metal-free solutions containing EDTA; for second order rate constant for reaction with H2O2: non-enzymic
Description: The non-enzymic reaction of OSH and H2 02 was measured and compared with GSH reacting with H2 02.
These preliminary studies were done in metal-free solutions containing EDTA, so additional experiments can compare the effect of ions of Fe, Mn, and Cu, as well as certain liganded derivatives such as hematin and vitamin B12, on the reaction. […] Oxidation of ovothiol can be monitored by its absorbance change at 310 nm (Turner et al., 1986) and glutathione by coupling the reaction to glutathione reductase and NADPH oxidation.

[4] = Inhibition of pyrogallol autooxidation
From the text: The inhibition of the air oxidation of pyrogallol has been used previously as an assay for superoxide dismutase (SOD) (Marklund, S., and G. Marklund, Eur. J. Biochem. 47:469, 1974; Roth, E. F. Jr., and H. S. Gilbert, Anal. Biochem. 137:50, 1984).

[5] = system: xanthine/xanthine oxidase system; experiment: Xanthine oxidase-dependent oxyradical production, thiol oxidation; format: biochemical
From the text: Xanthine oxidase with both acetaldehyde and xanthine as substrates (both xanthine and its product uric acid react with OH^.) are used to determine whether the aromatic thiols or glutathione are oxidized by this reaction, or whether they inhibit cytochrome C reduction (McCord, J. M., and I. Fridovich, J. Biol. Chem. 244:6049-6054, 1969; Crapo, J. D., et al, Methods in Enzymology 530:382-386, 1977). For example, the ovothiol analogue H3 is oxidized by the xanthine/xanthine oxidase system, and that this can be suppressed by up to 50% by addition of SOD. Since GSH is protected only 20% by SOD in this assay (Wefers, H., and H. Sies, Europ. J. Biochem. 137:2936, 1983; Ross, D., et al., Biochem. Biophys. Acta 841:278, 1983), this implies a higher reactivity of 4-mercaptohistidines toward 02^.-. Differences between the reactions with acetaldehyde and xanthine will implicate OH^. in the process.

sea urchin eggs [6] = experiment: Toxicity to sea urchin eggs (inhibition of first cellular division after fertilization); format: cell-based; details: administered as the disulfide
From the text: This aspect of the screening program introduces additional complications. For example, certain thiols are toxic to cells (Heinecke, J. W., et al., J. Biol. Chem. 262, 1987; Issels, R., et al., in Superoxide and Superoxide Dismutase in Chemistry, Biology, and Medicine, ed. G. Rotilio, pp. 419-421, Elsevier, N.Y., 1986) because they can autooxidize and produce reactive oxygen intermediates (Misra, H. R., J. Biol. Chem. 249:2151-2155,1974). Thiol toxicity may be due to redox cycling; for example, when cystine is given to cells it damages lipoproteins, apparently by being reduced to cysteine intracellularly then exiting to reoxidize and produce oxygen radicals and cellular damage. When we administered compound H3 (containing the reactive 4-mercaptoimidazole ring without the amino acid side chain) to sea urchin eggs, it was toxic at 2 mM but not at 200 μM (as assessed inhibition of the first cellular division after fertilization). […] We tried compound H3 because we thought it would be permeant, having no charged side chain; we administered it to these cells as the disulfide. We infer that the toxicity was caused by redox cycling, with H3 being taken up, reduced, and the thiol being reoxidized extracellularly to produce reactive oxygen intermediates. […]

[7] = Reduction of Fremy's salt nitroxide radical; details: pH 7.0
From the text: Fremy's salt (K^+- 03 SN(0^.)SO3^- K^+) is a stable, commercially available nitroxide radical. Reduction of this radical can be followed by UV or ESR. […] In this assay, a relatively large difference was seen between two aromatic thiols, H3 and thiophenol.

cultured myoblasts = experiment: Toxicity to cultured myoblasts (colony formation, 3H-TdR incorporation); format: cell-based; details: administered as the disulfide
[8] = Reduction of ovothiol disulfide (OSSO) by reduced glutathione; format: physicochemical
Description: The redox potential of ovothiol was determined, as were the kinetics for its interaction with glutathione and H2 02. The mid-point potential (E^o') was estimated indirectly by determining the equilibrium in reaction with other known thiol-disulfide equilibria, since direct determination of (E^o') for thiols is typically complicated by artifacts. […] Appropriate corrections were made for the mixed disulfides present at different concentrations of ovothiol and glutathione. E^o' (30^o) for ovothiol was 44 mV positive relative to glutathione, or -0.196 V. Thus, the ΔG^o' for the reduction of ovothiol disulfide (OSSO) by reduced glutathione (GSH) is […], so that at equilibrium reduced ovothiol (OSH) predominates in a mixture of equimolar oxidized ovothiol (OSSO) and reduced glutathione (GSH). From a thermodynamic point of view, ovothiol can be maintained almost entirely in the reduced state by GSH, and thus by NADPH via glutathione reductase, without the need for a specific ovothiol reductase. […] Because reduced glutathione reduces ovothiol, a functional ovothiol reductase reaction exists by coupling reactions and [6]. The second order rate constant for ovothiol reduction by glutathione is 88M^-1 S^-1. We calculate that egg glutathione reductase is sufficient to produce 4.1 pmol GSH/min; with an egg GSH content of 0.9 pmol, it would take only 13 seconds for the egg to regenerate its entire GSH content from GSSG, if NADPH were present (which it is after fertilization). […] In other words, reduction of ovothiol is rapid at the concentrations of glutathione and ovothiol of the egg, and an enzymatic "ovothiol reductase" is not required to catalyze reaction.

[9] = system: fertilized sea urchin eggs; format: in vitro ADME
Description: First, the conditions under which ovothiols A or C are transported into the cells of interest are determined using radioactive ovothiol derivatives. For example, by reacting ovothiol A with ^3 H-formaldehyde and reduction by NaBH4, ovothiol A was converted into ^3 H-ovothiol C. […] The km for OSH uptake appears to be higher than for histidines, although the Vmax may be similar. We measure the kinetics of ovothiol uptake into the cells to be studied, in order to identify optimal conditions for transport. We no only use ^3 H-ovothiol C but also synthesize ^3 H-ovothiol A by using ^14 C--HCHO in the abovedescribed chemical synthesis procedure.

sea urchin eggs [10] = experiment: First cell division of sea urchin eggs after iodoacetamide treatment; format: cell-based; details: for cell division: 0.25 mM iodoacetamide
From the text: The following biological experiment further implicates ovothiol in protection of eggs from H2 02 produced during the respiratory burst. If ovothiol were important in protection, then its absence should lead to embryonic lethality. […] However, iodoacetamide might have reacted with critical proteins (or other components) required for cell division, so that experiment was not definitive in implicating ovothiol. More recently, we added exogeneous catalase to eggs derivatized with iodoacetamide. Catalase should act as a second mechanism for removing H2 02 and partially compensate for the iodoacetamide treatment. The first cell division was blocked for eggs treated with 1.0 mM iodoacetamide prior to the respiratory burst (7% cleavage vs. 90% of control eggs). With catalase present during the respiratory burst, 70% of IAA-treated eggs divided (and 90% of the controls). Pretreatment with 0.25 mM iodoacetamide decreased cleavage to 75%; with exogenous 0.1 mM H2 02 added, cell division occurred in only 2% of these eggs, and with catalase present in 90%. Control eggs (not treated with iodoacetamide) were unaffected by 0.1 mM H2 02.

[11] = Mid-point redox potential from equilibrium with glutathione thiol-disulfide; format: physicochemical; details: 30°
Description: The redox potential of ovothiol was determined, as were the kinetics for its interaction with glutathione and H2 02. The mid-point potential (E^o') was estimated indirectly by determining the equilibrium in reaction with other known thiol-disulfide equilibria, since direct determination of (E^o') for thiols is typically complicated by artifacts. […] Appropriate corrections were made for the mixed disulfides present at different concentrations of ovothiol and glutathione. E^o' (30^o) for ovothiol was 44 mV positive relative to glutathione, or -0.196 V. Thus, the ΔG^o' for the reduction of ovothiol disulfide (OSSO) by reduced glutathione (GSH) is -0.386 kcal, so that at equilibrium reduced ovothiol (OSH) predominates in a mixture of equimolar oxidized ovothiol (OSSO) and reduced glutathione (GSH). From a thermodynamic point of view, ovothiol can be maintained almost entirely in the reduced state by GSH, and thus by NADPH via glutathione reductase, without the need for a specific ovothiol reductase. […] Because reduced glutathione reduces ovothiol, a functional ovothiol reductase reaction exists by coupling reactions and [6]. The second order rate constant for ovothiol reduction by glutathione is 88M^-1 S^-1. […]

ovoperoxidase, sequence (O44391 entry or part of it): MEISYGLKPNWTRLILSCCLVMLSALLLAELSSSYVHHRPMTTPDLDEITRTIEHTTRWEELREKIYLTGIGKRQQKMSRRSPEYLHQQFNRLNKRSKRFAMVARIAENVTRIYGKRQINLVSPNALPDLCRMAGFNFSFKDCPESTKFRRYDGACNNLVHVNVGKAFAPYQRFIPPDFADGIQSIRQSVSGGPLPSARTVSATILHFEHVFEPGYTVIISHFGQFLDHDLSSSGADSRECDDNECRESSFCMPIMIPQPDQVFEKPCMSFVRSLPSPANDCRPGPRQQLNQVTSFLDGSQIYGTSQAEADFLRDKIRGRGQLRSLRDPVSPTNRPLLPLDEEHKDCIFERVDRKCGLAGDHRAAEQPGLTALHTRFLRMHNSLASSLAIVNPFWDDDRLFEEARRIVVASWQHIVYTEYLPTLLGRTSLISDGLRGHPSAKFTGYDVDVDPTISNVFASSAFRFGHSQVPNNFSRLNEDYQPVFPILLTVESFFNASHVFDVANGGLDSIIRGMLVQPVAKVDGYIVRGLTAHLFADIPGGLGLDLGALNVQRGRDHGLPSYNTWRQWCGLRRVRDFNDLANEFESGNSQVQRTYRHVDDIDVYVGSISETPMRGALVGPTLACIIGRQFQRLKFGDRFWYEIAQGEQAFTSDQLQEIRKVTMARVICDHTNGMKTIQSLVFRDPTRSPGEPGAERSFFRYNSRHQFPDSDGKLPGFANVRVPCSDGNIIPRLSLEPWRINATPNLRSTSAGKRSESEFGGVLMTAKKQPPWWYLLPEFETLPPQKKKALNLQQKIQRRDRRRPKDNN

CC(C)(COP(=O)(O)OP(=O)(O)OC[C@H]1O[C@@H](n2cnc3c(N)ncnc32)[C@H](O)[C@@H]1OP(=O)(O)O)[C@@H](O)C(=O)NCCC(=O)NCCS [Coenzyme A]
cofactor for the CN--resistant oxidase reaction (ovoperoxidase): could not be replaced by

N[C@@H](CCC(=O)N[C@@H](CS)C(=O)NCC(=O)O)C(=O)O [GSH, glutathione]
inhibition of photochemical dityrosine formation [1]: at least an order of magnitude less effective
protection by SOD in this assay [2]: 20%
second order rate constant for reaction with H2O2 [3]: 1.5 M^-1 S^-1
cofactor for the CN--resistant oxidase reaction (ovoperoxidase): could not be replaced by
concentration needed for effect, relative to H3 [4]: 50 fold
effect on air oxidation of pyrogallol [4]: more modest inhibitory effect

Cc1c(S)ncn1C [H3, 1,5-dimethyl-4-mercaptoimidazole]
inhibition of photochemical dityrosine formation [1]: strong inhibitor
effect on dityrosine formation at 1 μM ([1]; 1 μM): slowing the reaction for several minutes
oxidation by the xanthine/xanthine oxidase system [5]: is oxidized
suppression of oxidation by addition of SOD ([5]; xanthine/xanthine oxidase): up to 50%
toxicity to sea urchin eggs at 200 μM (sea urchin eggs [6]; 200 μM): not
toxicity to sea urchin eggs at 2 mM (sea urchin eggs [6]; 2 mM): toxic
effect on air oxidation of pyrogallol [4]: induces a time lag
rate of reduction of Fremy's salt relative to glutathione [7]: ~40 fold
rate of reduction of Fremy's salt relative to thiophenol [7]: roughly ten-fold faster
rate of reduction of Fremy's salt, rank [7]: fastest radical scavenger
colony formation of cultured myoblasts (cultured myoblasts; 200 μM): inhibited colony formation
pIC50 (cultured myoblasts; Myoblast, cultured myoblasts, read-out: half-maximal effect on 3H-TdR incorporation): 4.82

CN(C)[C@@H](Cc1c(SSc2ncn(C)c2C[C@@H](C(=O)O)N(C)C)ncn1C)C(=O)O [OSSO]
ΔG°' for reduction of ovothiol disulfide (OSSO) by reduced glutathione (GSH) [8]: -0.386 kcal
t1/2 for reduction of OSSO to OSH ([8]; normal cellular GSH levels): 1.6 s

N[C@@H](CS)C(=O)O [cysteine]
cofactor for the CN--resistant oxidase reaction (ovoperoxidase): could not be replaced by

C[N+](C)(C)[C@@H](Cc1c[nH]c(=S)[nH]1)C(=O)[O-] [ergothioneine]
cofactor for the CN--resistant oxidase reaction (ovoperoxidase): could not be replaced by

N[C@@H](Cc1c[nH]cn1)C(=O)O [histidine]
uptake by fertilized sea urchin eggs [9]: 38 fmol/egg/hr

NC(=O)CI [iodoacetamide]
cell division (sea urchin eggs [10]; 0.1 mM H2O2, catalase present): 90%
cell division (sea urchin eggs [10]; exogenous 0.1 mM H2O2 added): 2%
cleavage (first cell division) (sea urchin eggs [10]; 1.0 mM iodoacetamide prior to respiratory burst): 7%
eggs divided (sea urchin eggs [10]; 1.0 mM iodoacetamide, catalase present during respiratory burst): 70%
cleavage (sea urchin eggs [10]; pretreatment with 0.25 mM iodoacetamide): 75%

CN(C)[C@@H](Cc1c(S)ncn1C)C(=O)O [ovothiol C, 1-methyl-N^α N^α -dimethyl-4-thiolhistidine]
E°' mid-point potential [11]: -0.196 V
E°' relative to glutathione (positive) [11]: 44 mV
km for uptake compared with histidines [9]: higher
uptake by fertilized sea urchin eggs [9]: 6 fmol/egg/hr
rate with H2O2 relative to reduced glutathione [3]: ~2.3 fold
second order rate constant for reaction with H2O2 [3]: 3.34 M^-1 S^-1
second order rate constant for reaction with H2O2 ([3]; listed as OSH): 3.3 M^-1 S^-1
second order rate constant for ovothiol reduction by glutathione [8]: 88 M^-1 S^-1
ovothiol concentration giving maximal oxidase activity (ovoperoxidase): 1 mM

Sc1ccccc1 [thiophenol]
effect on air oxidation of pyrogallol [4]: similar, though not identical

catalase
inhibition of the NAD(P)H oxidase activity of ovoperoxidase (ovoperoxidase): inhibited

superoxide dismutase
inhibition of the NAD(P)H oxidase activity of ovoperoxidase (ovoperoxidase): inhibited

From US4898878A, “Antioxidant thiohistidine compounds” (priority 1987, dated 1990)
